Test results reported in the supplement of paper PMC7023306.
± gives the uncertainty stated by the source.

Assay: TIMS collision cross section in N2 (TIMS CCS N2); higher = larger gas-phase ion size
Conditions: drift gas: N2 (99.4% N2, 0.6% O2), calibration: Stow et al. 2017 values for Agilent ESI-L Low Concentration Tune Mix, ionization: negative ESI
Method: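 Authentic plant natural product standards (10-50 ppm in 80% methanol) were analysed by UHPLC (BEH C18, 60 °C) coupled to a Bruker timsTOF Pro in negative ESI with N2 drift gas. TIMS collision cross sections were computed from mobility peak apices after calibration with Agilent Tune Mix using Stow et al. reference values. Values are the average of triplicate runs on different days, reported per annotated ion species (deprotonated ion, adducts, dimer, oxidized ion).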

SMILES	TIMS collision cross section in N2 (ion species: [M-H]-)	further results
CC1(C)CC[C@]2(C(=O)O)CC[C@]3(C)C(=CC[C@@H]4[C@@]5(C)CC[C@H](O[C@@H]6OC[C@H](O)[C@H](O)[C@H]6O[C@@H]6O[C@H](CO)[C@@H](O)[C@H](O)[C@H]6O)[C@@](C)(CO)[C@@H]5CC[C@]43C)[C@@H]2C1 [Cauloside C]	–	TIMS collision cross section in N2 (ion species: [M-H+HCO2H]-): 289.87 ± 0.76 Å²
C[C@H]1[C@H](C)CC[C@]2(C(=O)O)CC[C@]3(C)C(=CC[C@@H]4[C@@]5(C)C[C@@H](O)[C@H](O)[C@@](C)(CO)[C@@H]5[C@H](O)C[C@]43C)[C@H]12 [Madecassic acid]	223.91 ± 0.25 Å²	–
O=c1cc(-c2ccccc2)oc2cc(O)c(O)c(O)c12 [Baicalein]	–	TIMS collision cross section in N2 (ion species: [M-3H]-): 158.42 ± 0.15 Å²
C[C@H]1[C@H](C)CC[C@]2(C(=O)O)CC[C@]3(C)C(=CC[C@@H]4[C@@]5(C)C[C@@H](O)[C@@H](O)[C@](C)(CO)[C@@H]5CC[C@]43C)[C@H]12 [Pygenic acid B]	225.46 ± 0.32 Å²	–
C[C@@H]1O[C@@H](Oc2c(-c3ccc(O)c(O)c3)oc3cc(O)cc(O)c3c2=O)[C@H](O)[C@H](O)[C@H]1O [Quercitrin]	195.84 ± 0.038 Å²	TIMS collision cross section in N2 (ion species: [M-H+Na+HCO2H]-): 205.52 ± 0.42 Å²
COc1ccc([C@@H]2CC(=O)c3c(O)cc(O[C@@H]4O[C@H](CO)[C@@H](O)[C@H](O)[C@H]4O)cc3O2)cc1 [Isosakuranin]	217.58 ± 0.11 Å²	TIMS collision cross section in N2 (ion species: [M-H+HCO2H]-): 213.68 ± 0.13 Å²
COc1cc(OC)c2c(c1)OC(c1ccc(O)cc1)CC2=O (configuration not stated) [5,7-DIMETHOXY-4'-HYDROXYFLAVANONE]	174.1 ± 0.31 Å²	–
COc1ccc(-c2oc3cc(OC)ccc3c(=O)c2O)cc1 [7,4'-Dimethoxy-3-hydroxyflavone]	–	TIMS collision cross section in N2 (ion species: [M-H+Na+HCO2H]-): 193.67 ± 0.15 Å²
Cc1c(O)c(C)c2c(c1O)C(=O)C[C@@H](c1ccc(O)cc1)O2 [Farrerol]	172.28 ± 0.21 Å²	TIMS collision cross section in N2 (ion species: [M-H+Na+HCO2H]-): 186.6 ± 0.36 Å²
Oc1cc(O)c2c(c1)OC(c1ccc(O)c(O)c1)C(O)C2 (single isomer, unassigned; (+)) [(+)-Catechin]	157.43 ± 0.095 Å²	–
COc1cc([C@@H]2CC(=O)c3c(O)cc(O)cc3O2)ccc1O [Homoeriodictyol]	168.62 ± 0.075 Å²	TIMS collision cross section in N2 (ion species: [M-H+Na+HCO2H]-): 188.05 ± 0.04 Å²
CCCCCCCCCCCCC(=O)O [n-Tridecanoic acid]	159.43 ± 0.061 Å²	–
C[C@H]1[C@H](C)CC[C@]2(C(=O)O)CC[C@]3(C)C(=CC[C@@H]4[C@@]5(C)C[C@@H](O)[C@@H](O)C(C)(C)[C@@H]5CC[C@]43C)[C@H]12 [Pygenic acid A]	220.9 ± 0.38 Å²	–
O=C(O)[C@H]1O[C@@H](Oc2cc3oc(-c4ccc(O)cc4)cc(=O)c3c(O)c2O)[C@H](O)[C@@H](O)[C@@H]1O [scutellarin (Scutellarein-7-glucuronide)]	–	TIMS collision cross section in N2 (ion species: [M-3H]-): 206.59 ± 0.074 Å²
C[C@@H]1O[C@@H](O[C@H]2[C@H](Oc3cc(O)c4c(c3)O[C@H](c3ccc(O)cc3)CC4=O)O[C@H](CO)[C@@H](O)[C@@H]2O)[C@H](O)[C@H](O)[C@H]1O [Naringin]	215.92 ± 0.17 Å²	TIMS collision cross section in N2 (ion species: [M-H+Na+HCO2H]-): 220.79 ± 0.26 Å²
CC1(C)CCC2(C(=O)OC3OC(CO)C(O)C(O)C3O)CCC3(C)C(=CCC4C5(C)CC(O)C(OC6OC(CO)C(O)C(O)C6O)C(C)(C(=O)O)C5CCC43C)C2C1 (configuration not stated) [3-Glc, 28-Glc medicagenic acid]	300.86 ± 0.71 Å²	–
CC1(C)CC[C@]2(C)CC[C@]3(C)C(=CC[C@@H]4[C@@]5(C)CC[C@@H](O)[C@](C)(C(=O)O)[C@@H]5CC[C@]43C)[C@@H]2C1 [Boswellic acid, alpha-]	222.31 ± 0.39 Å²	TIMS collision cross section in N2 (ion species: [M-H+Na+HCO2H]-): 239.79 ± 0.21 Å²
Oc1ccc(/C=C/c2cc(O)cc(O)c2)cc1 [Resveratrol]	157.41 ± 0.0058 Å²	–
COc1ccc(C2CC(=O)c3c(O)cc(O)cc3O2)cc1OC (configuration not stated) [5,7-dihydroxy-3',4'-dimethoxy-flavanone]	175.95 ± 0.1 Å²	TIMS collision cross section in N2 (ion species: [2M-H]-): 238.03 ± 0.5 Å²; TIMS collision cross section in N2 (ion species: [M-H+Na+HCO2H]-): 195.74 ± 0.19 Å²
COc1ccc(CCC(=O)c2c(O)cc(O[C@@H]3O[C@H](CO)[C@@H](O)[C@H](O)[C@H]3O[C@@H]3O[C@@H](C)[C@H](O)[C@@H](O)[C@H]3O)cc2O)cc1O [neohesperidin dihydrochalcone]	232.21 ± 0.35 Å²	–

Continued, in another order:

TIMS collision cross section in N2 (ion species: [M-H]-)	SMILES	further results
154.89 ± 0.41 Å²	O=c1cc(-c2cccc(O)c2)oc2ccccc12 [3'-Hydroxyflavone]	TIMS collision cross section in N2 (ion species: [2M-H]-): 218.5 ± 0.57 Å²
164.03 ± 0.16 Å²	O=C1c2c(O)cc(O)cc2O[C@H](c2ccc(O)cc2)[C@H]1O [Dihydrokaempferol]	TIMS collision cross section in N2 (ion species: [2M-H]-): 248.74 ± 0.038 Å²; TIMS collision cross section in N2 (ion species: [M-H+Na+HCO2H]-): 186.44 ± 0.2 Å²
161.89 ± 0.17 Å²	Oc1ccc2c(c1)O[C@H]1c3ccc(O)cc3OC[C@@H]21 [Demethyl medicarpin]	–
155.92 ± 0.15 Å²	O=c1cc(-c2ccccc2)oc2ccc(O)cc12 [6-Hydroxyflavone]	TIMS collision cross section in N2 (ion species: [2M-H]-): 239.79 ± 0.056 Å²
165.52 ± 0.17 Å²	COc1c(O)cc2oc(-c3ccc(O)cc3)cc(=O)c2c1O [Hispidulin]	–
161.7 ± 0.14 Å²	O=c1c(O)c(-c2cccc(O)c2O)oc2ccc(O)cc12 [3,6,2',3'-Tetrahydroxyflavone]	TIMS collision cross section in N2 (ion species: [M-3H]-): 161.13 ± 0.17 Å²
161.99 ± 0.064 Å²	O=c1c(O)c(-c2ccc(O)cc2O)oc2ccc(O)cc12 [3,6,2',4'-Tetrahydroxyflavone]	TIMS collision cross section in N2 (ion species: [M-H+Na+HCO2H]-): 183.33 ± 0.05 Å²
162.61 ± 0.21 Å²	O=c1c(-c2ccc(O)c(O)c2)coc2cc(O)ccc12 [7,3',4'-TRIHYDROXYISOFLAVONE]	TIMS collision cross section in N2 (ion species: [M-3H]-): 156.67 ± 0.24 Å²
180.72 ± 0.067 Å²	COc1ccc(C2CC(=O)c3ccc(O)cc3O2)cc1OC (configuration not stated) [3',4'-Dimethoxy-7-hydroxyflavanone]	TIMS collision cross section in N2 (ion species: [2M-H]-): 241.38 ± 0.035 Å²
157.59 ± 0.0071 Å²	O=c1c(-c2ccc(O)cc2)coc2cc(O)ccc12 [Daidzein]	TIMS collision cross section in N2 (ion species: [2M-H]-): 246.33 ± 0.2 Å²
161.78 ± 0.026 Å²	O=c1c(-c2ccc(O)c(O)c2)coc2cc(O)ccc12 [3',4',7-Trihydroxyisoflavone]	TIMS collision cross section in N2 (ion species: [2M-H]-): 217.7 ± 0.21 Å²; TIMS collision cross section in N2 (ion species: [M-3H]-): 155.92 ± 0.067 Å²
159.49 ± 0.16 Å²	O=c1c(-c2ccc(O)cc2)coc2cc(O)c(O)cc12 [6,7,4'-Trihydroxyisoflavone]	TIMS collision cross section in N2 (ion species: [2M-H]-): 249.43 ± 0.37 Å²
172.02 ± 0.17 Å²	COc1ccc(-c2cc3ccc(O)cc3oc2=O)cc1OC [3(3',4'-Dimethoxyphenyl)-7-hydroxycoumarin]	TIMS collision cross section in N2 (ion species: [2M-H]-): 276.72 ± 0.47 Å²
156.92 ± 0.15 Å²	O=C1CC(c2ccccc2)Oc2ccc(O)cc21 (configuration not stated) [6-Hydroxyflavanone]	TIMS collision cross section in N2 (ion species: [2M-H]-): 244.54 ± 0.11 Å²
163.01 ± 0.16 Å²	O=C1C[C@@H](c2ccc(O)cc2)Oc2cc(O)cc(O)c21 [Naringenin]	–
